Data as given in patent US9447056B2, “Solid forms of epalrestat” (Bionevia Pharmaceuticals, Inc., priority 2008, dated 2016).

Assay: Solid-form stability on compression into a disk (XRPD)
Format: physicochemical
Settings: compressed into a disk at 3400 pounds of pressure (117 MPa) for 1 minute, Carver hydraulic press and pellet die
Description: In various embodiments, the novel betaine cocrystal of epalrestat described herein is stable.

Substance: betaine hydrogen diepalrestat [betaine hydrogen diacid cocrystal]
- change in XRPD pattern after compression: no change in the XRPD pattern
